This note sets out measurements from patent US20260294867A1, “METHODS FOR WEIGHT LOSS AND/OR REDUCING WEIGHT GAIN” (The Medical College of Wisconsin, Inc., priority 2023, published 2026).

Holding throughout (format): in vivo, C57BL/6J diet-induced obesity (DIO) male mice
Test [1] can be described thus: Example 1: eating behavior, calories ingested per day. Particulars: 2-way ANOVA of FIG. 4A; reutericyclin 100 μg/kg gavage, semaglutide 1 nmole/kg/day IP. The source says:
(§1) FIG. 1 depicts the experimental approach for this Example. C57BL/6J diet-induced obesity (DIO) male mice were obtained at 12 weeks of age and housed singly in the MCW animal facility (www.jax.org/jax-mice-and-services/strain-data-sheet-pages/phenotype-information-380050). Mice were maintained on a 60% high fat diet (HFD) (Research Diets D12492) throughout the experiment. Mice were acclimated for 2 weeks prior to treatment with either semaglutide, reutericyclin, both drugs, or neither drug.
(§2) Mice were weight-matched into 4 groups (N=10 per group) and given either reutericyclin via gavage to achieve a dosage of 100 μg/kg or injected intraperitoneally (IP) with semaglutide to administer 1 nmole/kg/day. All mice experienced both gavage and injection with either drug or vehicle. Vehicle for reutericyclin and semaglute are identical: 3.0% DMSO in phosphate buffered saline (PBS).
(§3) The four groups were: the control group (HFD-PBS), which received vehicle only; the HFD-RTC group, which were administered reutericyclin at a dose of 100 μg/kg of body weight in PBS; the HFD-RTC-SemaG group, which received reutericyclin at a dose of 100 μg/kg of body weight and 1 nanomole of semaglutide/kg of body weight in vehicle; and the HFD-SemaG group, which were administered 1 nanomole of semaglutide/kg of body weight in vehicle. […]

A short description of test [2]: Example 1: fasted blood glucose. Particulars: 2-way ANOVA of FIG. 4B; reutericyclin 100 μg/kg gavage, semaglutide 1 nmole/kg/day IP.
Description: as §1, §2, §3

The nature of test [3]: Example 2: change in body mass on day 26. The settings on record: 2-way ANOVA. From the text:
(§4) FIG. 5 depicts the experimental approach for this Example, and additional details can be found in Tables 3 and 4 below. C57BL/6J diet-induced obesity (DIO) male mice were obtained at 12 weeks of age and housed singly in the MCW animal facility (https://www.jax.org/jax-mice-and-services/strain-data-sheet-pages/phenotype-information-380050). Mice were maintained on a 60% high fat diet (Research Diets D12492) throughout the experiment. Mice were acclimated for 2 weeks prior to treatment with either semaglutide, reutericyclin (RTC), both drugs, or neither drug.
(§5) Mice were weight-matched into 4 groups (N=10 per group) and given either reutericyclin via gavage to achieve a dosage of 100 μg/kg or injected intraperitoneally (IP) with semaglutide to administer 1 nmole/kg/day. All mice experienced both gavage and injection with either drug or vehicle. Vehicle for reutericyclin and semaglute are identical: 3.0% DMSO in phosphate buffered saline (PBS). […]
(§6) Mice were weighed daily to assess changes in body mass. […] Feeding efficiency is calculated by measuring the amount of weight gained by each mouse per gram of food consumed over a period of 5 days. Feeding efficiency shown here was calculated over days 21-26. […]

Test [4] in a line: Example 2: change in weight at day 46 after withdrawal of the semaglutide. The settings on record: 2-way ANOVA.
Description: as §4, §5, §6

Test [5] in a line: Example 2: feeding efficiency. The settings on record: 2-way ANOVA, days 21-26.
Description: as §4, §5, §6

A short description of test [6]: Example 2: fasted blood glucose at day 27. The settings on record: 4 hours without food.
Description: as §4, §2
The four groups of mice were as follows: Group 1 (black) (HFD-PBS) received no drug but experienced gavage and injection; Group 2 (red) (HFD-RTC) received reutericyclin via gavage and experienced injection with vehicle only; Group 3 (green) (HFD-SemaG) received no drug via gavage and experienced injection with semaglutide; and Group 4 (purple) (HFD-RTC-SemaG) received reutericyclin via gavage and experienced injection with semaglutide.
Fasted blood glucose (4 hours without food) was performed with standard glucose test strips. Blood was obtained by a tail prick on day 27 of the experiment.
For each 2-way ANOVA statistical analyses, injection refers to semaglutide, gavage refers to reutericyclin, and interaction refers to the combination of injection and gavage.
FIG. 9 is a bar graph depicting the fasted blood glucose level at day 27 as described in Example 2.

On to `CCCCCCC/C=C/C(=O)N1C(=O)C(C(C)=O)=C(O)[C@H]1CC(C)C` [reutericyclin, (5R)-1-(2-decenoyl)-2-hydroxy-3-acetyl-5-isobutyl-42-pyrroline-4-one], for which the “effect on eating (calories ingested per day)” value in test [1] is listed as “no noted effect”. For the same molecule, the “effect on fasting blood glucose” value in test [2] is recorded as “no noted effect”. Also, the “Significant?, change in body mass” value in test [3] is on record as “Yes”. Moreover, the “% of total variation, change in body mass” value in test [3] (gavage = reutericyclin 100 μg/kg, injection = semaglutide 1 nmole/kg/day IP, interaction = combination) came to 7.893%. In test [4] (semaglutide stopped at day 26), the “Significant?, change in weight after withdrawal of the semaglutide” value is listed as “Yes”. Besides, the “% of total variation, change in weight after withdrawal of the semaglutide” value in test [4] (semaglutide stopped at day 26, gavage = reutericyclin, injection = semaglutide, interaction = combination) is recorded as 5.422%. Further, the “Significant?, feeding efficiency” value in test [5] is “Yes”. Moreover, in test [5] (weight gained per gram of food consumed, gavage = reutericyclin, injection = semaglutide, interaction = combination), the “% of total variation, feeding efficiency” value is 8.034%. The “Significant?, fasted blood glucose level” value in test [6] (2-way ANOVA) is “No”. Moreover, the “% of total variation, fasted blood glucose level” value in test [6] (2-way ANOVA, gavage = reutericyclin, injection = semaglutide, interaction = combination) was 9.241e−005%. Also, in test [6] (tail prick), the “effect on blood glucose levels” value is on record as “does not”.
